From US20100087432A1, “PYRROLE DERIVATIVES HAVING CRTH2 RECEPTOR ANTAGONIST ACTIVITY” (priority 2004, published 2010)
pIC50, pKi: −log10 of the molar value.

Tests used:
human CRTh2 [1] = biological target: T1, human CRTh2 (Homo sapiens, UniProt Q9Y5Y4); experiment: Filtration binding assay ([3H]-PGD2 competition on CHO.K1-CRTh2 membranes); conditions: [3H]-PGD2 2.5 nM, Cheng-Prussoff
T1 sequence (Q9Y5Y4 1-395): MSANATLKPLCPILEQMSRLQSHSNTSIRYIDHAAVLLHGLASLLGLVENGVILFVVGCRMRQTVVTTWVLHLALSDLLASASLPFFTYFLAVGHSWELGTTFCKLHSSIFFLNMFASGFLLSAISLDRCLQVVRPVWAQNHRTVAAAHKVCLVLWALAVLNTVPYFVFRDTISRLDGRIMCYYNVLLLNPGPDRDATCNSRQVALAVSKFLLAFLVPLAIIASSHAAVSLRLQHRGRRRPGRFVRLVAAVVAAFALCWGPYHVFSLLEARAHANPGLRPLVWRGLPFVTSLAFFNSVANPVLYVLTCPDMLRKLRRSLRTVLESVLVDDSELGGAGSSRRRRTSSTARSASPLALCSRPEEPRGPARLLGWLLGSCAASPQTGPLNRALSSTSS
Description: The binding of CRTh2 antagonists is determined using membranes prepared from human CRTh2-expressing Chinese Hamster Ovary cells (CHO.K1-CRTh2). To produce cell membranes CHO.K1-CRTh2 cells cultured in roller bottles are harvested using cell dissociation buffer (Invitrogen). The cells are pelleted by centrifugation (167 g, 5 min). The cell pellet is incubated in hypotonic buffer (15 mM Tris-OH, 2 mM MgCl2, 0.3 mM EDTA, 1 mM EGTA, 1×Complete™ tablet) at 4° C. for 30 minutes. At 4° C. cells are homogenized using a Polytron® (IKA Ultra Turrax T25) for 5 bursts of 1 second. The homogenate is centrifuged (Beckman Optima TM TL Ultracentrifuge, 48000 g, 30 minutes at 4° C.). The supernatant is discarded and the membrane pellet re-suspended in homogenisation buffer (75 mM Tris-OH, 12.5 mM MgCl2, 0.3 mM EDTA, 1 mM EGTA, 250 mM Sucrose, 1×Complete™ tablet. Membrane preparations are aliquoted and stored at […]. The protein content is estimated using Bradford Protein Assay Dye (Bio Rad).
The binding of [^3H]-PGD2 (157 Ci/mmol) to CHO.K1-CRTh2 membranes is determined in the absence (total binding) and presence (non-specific binding) of unlabelled PGD2 (1 μM). Subtraction of the cpm (counts per minute) of [^3H]-PGD2 binding in presence of excess unlabelled PGD2 from that observed in the absence of excess unlabelled PGD2 is defined as specific binding. Active CRTh2 antagonists are able to compete with [^3H]-PGD2 for binding to the CRTh2 receptor and are identified in a decrease in the number of cpm bound.
The assay is performed in Greiner U-bottomed 96 well-plates, in a final volume of 100 μL per well. CHO.K1-CRTh2 membranes were diluted in assay buffer (10 mM HEPES-KOH (pH 7.4), 1 mM EDTA and 10 mM MnCl2) and 10 μg are added to each well [^3H]-PGD2 is diluted in assay buffer and added to each well at a final concentration of 2.5 nM. To determine non-specific binding, [^3H]-PGD2 binding to the CRTh2 receptor is competed with using unlabelled PGD2 at a final well concentration of 1 μM. The experiment is done in triplicate, with reagents added to the wells as follows: • 25 μL assay buffer for total binding or • 25 μL PGD2 to determine non-specific binding • 25 μL [^3H]PGD2 • […] • 25 μL test compound in DMSO/assay buffer
The plates are incubated at room temperature on a shaker for 1 hour, and then harvested (Tomtec Harvester 9600) onto GF/C filter plates using wash buffer (10 mM HEPES-KOH, pH 7.4). The plate is dried for 2 hours, prior to addition of Micro-Scint 20™ (50 μL) and sealing with TopSeal-S™. Plates are then counted using a Packard Top Count instrument, Plates are then read on the Packard Topcount with the 3H Scintillation program (1 min./well).
Ki (dissocation constant for the inhibition) values for the CRTh2 antagonists are reported. Ki values are determined using Sigma Plot™ software, using the Cheng-Prussoff equation.
(§1) where S is the concentration of radioligand and Kd is the dissociation constant. CRTH2 cAMP Functional Assay Protocol

human CRTh2 [2] = biological target: T1, human CRTh2; experiment: CRTH2 cAMP functional assay in CHO.K1-CRTh2 cells; type: cell-based; conditions: inhibition of PGD2-mediated attenuation of forskolin-induced cAMP accumulation in CHO.K1-CRTh2 cells
Description: as §1
This assay is conducted in CHO.K1-CRTh2 cells. cAMP is generated in the cell by stimulating cells with 5 μM forskolin, an adenylate cyclase activator. PGD2 is added to activate the CRTh2 receptor which results in the attenuation of the forskolin-induced cAMP accumulation. Potential CRTh2 antagonists are tested for their ability to inhibit the PGD2− mediated attenuation of the forskolin-induced cAMP accumulation in CHO.K1-CRTh2 cells.
For each concentration value on the dose-response curve, test compounds are prepared in assay stimulation buffer (HBSS, 5 mM HEPES, 10 μM IBMX ±0.1% human serum albumin) containing DMSO (3% vol/vol) and 5 μL/well is added to an assay plate (384 well white optiplate).
CHO.K1-CRTh2 cultured in tissue culture flasks are washed with PBS and harvested with dissociation buffer. Cells are washed with PBS and re-suspended in stimulation buffer to a concentration of 0.4×10^6/mL and added to the assay plate (10 μL/well).
The assay plate is incubated at room temperature on a shaker for 15 minutes.
A mix of agonist (10 nM Prostaglandin D2) and 5 μM forskolin is prepared in assay stimulation buffer and added to the assay plate (5 μL/well).
In addition, a cAMP standard is serially diluted in assay stimulation buffer and added to separate empty wells on the assay plate (20 μL/well). The cAMP standard allows for the quantification of cAMP generated in CHO.K1-CRTH2 cells.
The assay plate is incubated at room temperature on a shaker for 60 minutes.
Cell lysis buffer (Lysis buffer: Milli-Q H2O, 5 mM HEPES, 0.3% Tween-20, 0.1% human serum albumin) is added to a bead mix (containing Alphascreen™ anti-cAMP acceptor beads 0.06 units/μL, Alphascreen™ streptavidin-coated donor beads 0.06 units/μL, biotinylated cAMP 0.06 units/μL, 10 μM IBMX) is prepared under darkened conditions 60 minutes prior to addition to the assay plate. The resulting lysis mix is added to all wells of the assay plate (40 μL/well).
The assay plate is sealed with Topseal-S™ and incubated in the dark at room temperature on a shaker for 45 minutes. The plate is then counted using a Packard Fusion™ instrument.
The resulting counts per minute are converted to nM cAMP by using the prepared cAMP standard curve. IC50 values (concentration of CRTh2 antagonist required to inhibit 50% of the PGD2-mediated attenuation of forskolin-induced cAMP accumulation in CHO.K1-CRTh2 cells) are then determined using Prism™ software.

pKi (human CRTh2 [1])	pIC50 (human CRTh2 [2])	SMILES
7.05	6.79	N#Cc1cn(CC(=O)O)cc1-c1cc(C(F)(F)F)ccc1Cl [Example 17, [3-(2-Chloro-5-trifluoromethyl-phenyl)-4-cyano-pyrrol-1-yl]-acetic acid]
8.00	7.55	N#Cc1cn(CC(=O)O)cc1-c1cc(C(F)(F)F)cc(C(F)(F)F)c1 [Example 1, [3-(3,5-Bis-Trifluoromethyl-Phenyl)-4-Cyano-Pyrrol-1-yl]-Acetic Acid]
8.22	7.80	CCCCNS(=O)(=O)c1cc(-c2cn(CC(=O)O)cc2C#N)cc(C(F)(F)F)c1 [Example 45, [3-(3-butylsulfamoyl-5-trifluoromethyl-phenyl)-4-cyano-pyrrol-1-yl]-acetic acid]
6.76	7.16	N#Cc1cn(CC(=O)O)cc1-c1cccc(C(F)(F)F)c1 [Example 12, [3-Cyano-4-(3-trifluoromethyl-phenyl)-pyrrol-1-yl]-acetic acid]
7.47	7.24	N#Cc1cn(CC(=O)O)cc1-c1cc(Cl)cc(Cl)c1 [Example 2, [3-Cyano-4-(3,5-Dichloro-Phenyl)-Pyrrol-1-yl]-Acetic Acid]
7.38	7.85	CN(C)S(=O)(=O)c1cc(-c2cn(CC(=O)O)cc2C#N)cc(C(F)(F)F)c1 [Example 64, [3-Cyano-4-(3-Dimethylsulfamoyl-5-Trifluoromethyl-Phenyl)-Pyrrol-1-yl]-Acetic Acid]
6.61	6.07	N#Cc1cn(CC(=O)O)cc1-c1cccc2c1OC(F)(F)O2 [Example 3]
7.40	7.60	N#Cc1cn(CC(=O)O)cc1-c1cc(C(F)(F)F)cc(Cl)c1F [Example 25, [3-(3-Chloro-2-fluoro-5-trifluoromethyl-phenyl) -4-cyano-pyrrol-1-yl]-acetic acid]
8.22	7.77	N#Cc1cn(CC(=O)O)cc1-c1cc(C(F)(F)F)cc(S(=O)(=O)N2CCCC2)c1 [Example 42, {3-cyano-4-[3-(pyrrolidine-1-sulfonyl)-5-trifluoromethyl-phenyl]-pyrrol-1-yl}-acetic acid]
8.70	7.92	N#Cc1cn(CC(=O)O)cc1-c1cc(C(F)(F)F)cc(S(=O)(=O)N2CCCCC2)c1 [Example 40, {3-Cyano-4-[3-(Piperidine-1-Sulfonyl)-5-Trifluoromethyl-Phenyl]Pyrrol-1-yl}-Acetic Acid]
8.40	8.05	N#Cc1cn(CC(=O)O)cc1-c1cc(C(F)(F)F)cc(S(=O)(=O)NC2CCC2)c1 [Example 50, [3-cyano-4-(3-cyclobutylsulfamoyl-5-trifluoromethyl-phenyl)-pyrrol-1-yl]-acetic acid]
7.02	6.83	N#Cc1cn(CC(=O)O)cc1-c1cc(C(F)(F)F)ccc1C(F)(F)F [Example 21, [3-(2,5-Bis-trifluoromethyl-phenyl)-4-cyano-pyrrol-1-yl]-acetic acid]
6.84	6.55	N#Cc1cn(CC(=O)O)cc1-c1cc(Cl)ccc1Cl [Example 15, [3-Cyano-4-(2,5-dichloro-phenyl)-pyrrol-1-yl]-acetic acid]
8.70	7.34	N#Cc1cn(CC(=O)O)cc1-c1cc(Cl)cc(S(=O)(=O)N2CCCCC2)c1 [Example 53, {3-[3-Chloro-5-(Piperidine-1-Sulfonyl)-Phenyl]-4-Cyano-Pyrrol-1-yl}-Acetic Acid]
6.79	6.59	N#Cc1cn(CC(=O)O)cc1-c1cccc(Cl)c1 [Example 8, [3-(3-Chloro-phenyl)-4-cyano-pyrrol-1-yl]-acetic acid]
